According to patent publication US10336792B2, “Antimicrobial peptide dendrimers” (priority 2014, dated 2019):
Converted amounts (≈) assume the structure as drawn. Positions of bridges follow the written chain, without caps; N, C: chain ends. Non-standard residues stand in square brackets, D forms with d. Residues, ends and D or L forms follow the SMILES beside them. Groups on a side chain read outwards from the residue. Chains are numbered I, II in the order given. Dab = NCC[C@H](N)C(=O)O

Columns and labels:
[1] = 5(6)-Carboxyfluorescein leakage from lipid vesicles; conditions: 10 mM TRIS, 107 mM NaCl, pH 7.4; peptide added at 50 s
Procedure: (§1) Preparation A thin lipid film was prepared by evaporating a solution of 25 mg Egg PC or Egg PG in 1 mL MeOH/CHCl3 1/1 on a rotary evaporator (rt) and then in vacuo overnight. The resulting film was hydrated with 1 mL buffer (50 mM CF, 10 mM TIRS, 10 mM NaCl, pH 7.4) for 30 min, subjected to freeze-thaw cycles (7×) and extrusion (15×) through a polycarbonate membrane (pore size 100 nm). Extravesicular components were removed by gel filtration (Sephadex G-50) with 10 mM TRIS, 107 mM NaCl, pH 7.4. Final conditions: ˜2.5 mM Egg PC or Egg PG; inside: 50 mM CF, 10 mM TIRS, 10 mM NaCl, pH 7.4; outside: 10 mM TRIS, 107 mM NaCl, pH 7.4.
(§2) Experiment Egg PC or Egg PG stock solutions (37.5 μL) were diluted with a buffer (10 mM TRIS, 107 mM NaCl, pH 7.4) and placed in a thermostated fluorescence cuvette (25° C.) and gently stirred (total volume in the cuvette ˜3000 μL; final lipid concentration ˜31.25 μM). CF efflux was monitored at λem 517 nm (λex 492 nm) as a function of time after addition of 20 μL of peptide dendrimer in buffer (10 mM TRIS, 107 mM NaCl, pH 7.4) with final concentrations of 1, 5, 7.5, 10, 15, 20, 25, 30 μg/mL at t=50 s and 1.2% trition X-100 (30 μL, 0.012% final concentration) at t=300 s. Fluorescence intensities were normalized to fractional emission intensity I(t) using I(t)=(It−I0)/(I∞−I0) where I0 It at peptide dendrimer addition, I∞=It at saturation of lysis.
Bacterial membranes contain relatively large amounts of exposed anionic lipids, while the outer leaflet of the membranes of plants and animals is composed mainly of lipids with no net charge. The charge composition of such membranes can be mimicked with phospholipid vesicles. Large unilamellar vesicles (LUVs) composed of the neutral phospholipid with PC (phosphatidyl choline) or with PG (phosphatidyl glycerol) with negative charges were prepared encapsulating 5(6)-carboxyfluorescein (CF). […] The higher the concentration of MSt-112 the higher is the CF leakage (FIG. 6A). […] Overall the active AMPDs interact with the negatively charged membrane and release the CF.

[2] = system: Bacillus subtilis (strain BR151); format: cell-based; conditions: strain BR151
In short: (§3)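 Broth microdilution MIC in LB; overnight cultures diluted to OD600 0.001 and mixed 1:1 with ⅔-serially diluted samples (stock 1 mg mL^−1 in H2O), 37° C for 18-24 h. MTT (0.1%) added; MIC read by eye as lowest concentration inhibiting visible growth (yellow).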

[3] = system: Escherichia coli (strain DH5α); format: cell-based; conditions: DH5α
In short: as §3

[4] = system: Staphylococcus aureus (COL, MRSA reference strain); format: cell-based; conditions: COL, reference strain
In short: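 Broth microdilution in Müller-Hinton medium, two-fold serial dilutions from a starting 32–256 μg/mL, compounds dissolved in PBS; inoculum about 5×10^5 CFU, incubated 37° C ~18 h. MIC taken as lowest concentration with no visible growth by eye; polymyxin as reference.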

B. subtilis BR151 = assay: Preliminary resistant development assay (daily MIC for 15 days); format: cell-based, Bacillus subtilis; conditions: bacteria from 1/2 MIC well re-tested daily
Procedure: MICs of compounds for B. subtilis BR151 were determined daily for 15 days using cells from the well in which the compound concentration was one-half the MIC value (½ MIC well). […] The re-suspension was then diluted to 5×10^5 cells/ml in LB Broth (OD600=0.1 then diluted 1:100 fold to get OD600=0.001) and used to again determine the MIC of the same compound to which those cells had previously been exposed. All MIC determinations were done in duplicate.
For an initial estimation of how fast resistances could arise with AMPDs the MIC was repeated for 15 days in a row and determined each day. After obtaining the MIC value in usual broth dilution assay the bacteria (B. subtilis) from the ½ MIC well were incubated for 2-5 hours and the dilution assay was repeated. This procedure was realized for 15 days and the MICs of each day compared. In case of an increase of the MIC, it is indicative for a resistance against the AMPDs.

[5] = system: Pseudomonas aeruginosa (strain PA01); assay: microbe, parasite or virus in culture; format: cell-based; conditions: strain
In short: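 P. aeruginosa PAO1 grown overnight in LB, diluted to OD600 0.001 and mixed with ⅔-step peptide dilutions, then incubated at 37 °C for 18–24 h. After MTT staining, the lowest concentration with no visible growth was read by eye as the MIC.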

[6] = 5(6)-Carboxyfluorescein leakage from lipid vesicles; conditions: 10 mM TRIS, 107 mM NaCl, pH 7.4; peptide added at 50 s; remark: listed apart in the source
Procedure: as §1, §2

NCC[C@H](NC(=O)[C@H](CCCCNC(=O)[C@H](Cc1c[nH]c2ccccc12)NC(=O)[C@H](CCN)NC(=O)[C@H](CCCCNC(=O)[C@H](Cc1c[nH]c2ccccc12)NC(=O)[C@@H](N)CCN)NC(=O)[C@H](Cc1c[nH]c2ccccc12)NC(=O)[C@@H](N)CCN)NC(=O)[C@H](Cc1c[nH]c2ccccc12)NC(=O)[C@H](CCN)NC(=O)[C@H](CCCCNC(=O)[C@H](Cc1c[nH]c2ccccc12)NC(=O)[C@@H](N)CCN)NC(=O)[C@H](Cc1c[nH]c2ccccc12)NC(=O)[C@@H](N)CCN)C(=O)N[C@@H](Cc1c[nH]c2ccccc12)C(N)=O [MSt-176, (DabW)4(KDabW)2(KDabW)] (I: H-[Dab]WK([Trp-Dab])[Dab]WK[Dab]W-NH2 / II: H-[Dab]WK([Trp-Dab])[Dab]W; amide I:6-II:C; N-terminus assumed)
CF leakage from phosphatidylglycerol LUVs [1]: immediate leakage of CF
MIC B. subtilis BR151 [2]: 1 µg/mL (≈ 0.416 µM)
MIC E. coli DH5α [3]: 3 µg/mL (≈ 1.25 µM)
MIC S. aureus (COL, MRSA reference strain) [4]: below 20 μg/mL
change of MIC over 15 days (resistance) (B. subtilis BR151): did not have a significant change of their MIC values over 15 days
MIC P. aeruginosa PAO1 [5]: 1 µg/mL (≈ 0.416 µM)
CF leakage from phosphatidylcholine LUVs [6]: induced CF release
